Key:
ACAD11 = molecular target: T1, ACAD11 (Homo sapiens, UniProt Q709F0); assay: Kinobeads two-dose competition binding: ACAD11; conditions: sheet CATDS matrix 2; Gene Name ACAD11
T1 construct: endogenous in cells
T1 sequence (Q709F0 1-780): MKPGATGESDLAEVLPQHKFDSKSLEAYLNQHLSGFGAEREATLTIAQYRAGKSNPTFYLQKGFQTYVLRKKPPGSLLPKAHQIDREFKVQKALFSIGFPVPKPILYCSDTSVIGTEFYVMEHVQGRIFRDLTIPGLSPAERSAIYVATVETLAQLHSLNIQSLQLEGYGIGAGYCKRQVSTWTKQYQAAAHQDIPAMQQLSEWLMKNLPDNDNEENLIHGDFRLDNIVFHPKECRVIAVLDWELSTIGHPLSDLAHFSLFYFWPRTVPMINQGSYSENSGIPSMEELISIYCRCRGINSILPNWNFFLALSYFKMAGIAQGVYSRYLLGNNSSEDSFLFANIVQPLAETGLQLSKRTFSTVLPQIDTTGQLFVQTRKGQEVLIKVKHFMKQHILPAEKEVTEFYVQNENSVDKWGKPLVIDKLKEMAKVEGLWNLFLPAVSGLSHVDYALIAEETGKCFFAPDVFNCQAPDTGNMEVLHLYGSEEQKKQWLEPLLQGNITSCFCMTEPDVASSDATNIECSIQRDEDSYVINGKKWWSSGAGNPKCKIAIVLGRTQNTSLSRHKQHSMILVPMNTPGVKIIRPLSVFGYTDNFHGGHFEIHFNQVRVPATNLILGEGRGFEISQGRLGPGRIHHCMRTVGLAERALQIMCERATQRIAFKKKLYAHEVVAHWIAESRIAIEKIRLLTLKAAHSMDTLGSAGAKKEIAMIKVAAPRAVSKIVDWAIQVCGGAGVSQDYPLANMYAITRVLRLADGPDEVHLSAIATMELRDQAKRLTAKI

ABL2 = molecular target: T2, ABL2 (Homo sapiens, UniProt P42684); assay: Kinobeads two-dose competition binding: ABL2; conditions: sheet CATDS matrix 2; Gene Name ABL2
T2 construct: endogenous in cells

MAP3K6 = molecular target: T3, MAP3K6 (Homo sapiens, UniProt O95382); assay: Kinobeads two-dose competition binding: MAP3K6; conditions: for CATDS: target MAP3K6
T3 construct: endogenous in cells
T3 sequence (O95382 1-1288): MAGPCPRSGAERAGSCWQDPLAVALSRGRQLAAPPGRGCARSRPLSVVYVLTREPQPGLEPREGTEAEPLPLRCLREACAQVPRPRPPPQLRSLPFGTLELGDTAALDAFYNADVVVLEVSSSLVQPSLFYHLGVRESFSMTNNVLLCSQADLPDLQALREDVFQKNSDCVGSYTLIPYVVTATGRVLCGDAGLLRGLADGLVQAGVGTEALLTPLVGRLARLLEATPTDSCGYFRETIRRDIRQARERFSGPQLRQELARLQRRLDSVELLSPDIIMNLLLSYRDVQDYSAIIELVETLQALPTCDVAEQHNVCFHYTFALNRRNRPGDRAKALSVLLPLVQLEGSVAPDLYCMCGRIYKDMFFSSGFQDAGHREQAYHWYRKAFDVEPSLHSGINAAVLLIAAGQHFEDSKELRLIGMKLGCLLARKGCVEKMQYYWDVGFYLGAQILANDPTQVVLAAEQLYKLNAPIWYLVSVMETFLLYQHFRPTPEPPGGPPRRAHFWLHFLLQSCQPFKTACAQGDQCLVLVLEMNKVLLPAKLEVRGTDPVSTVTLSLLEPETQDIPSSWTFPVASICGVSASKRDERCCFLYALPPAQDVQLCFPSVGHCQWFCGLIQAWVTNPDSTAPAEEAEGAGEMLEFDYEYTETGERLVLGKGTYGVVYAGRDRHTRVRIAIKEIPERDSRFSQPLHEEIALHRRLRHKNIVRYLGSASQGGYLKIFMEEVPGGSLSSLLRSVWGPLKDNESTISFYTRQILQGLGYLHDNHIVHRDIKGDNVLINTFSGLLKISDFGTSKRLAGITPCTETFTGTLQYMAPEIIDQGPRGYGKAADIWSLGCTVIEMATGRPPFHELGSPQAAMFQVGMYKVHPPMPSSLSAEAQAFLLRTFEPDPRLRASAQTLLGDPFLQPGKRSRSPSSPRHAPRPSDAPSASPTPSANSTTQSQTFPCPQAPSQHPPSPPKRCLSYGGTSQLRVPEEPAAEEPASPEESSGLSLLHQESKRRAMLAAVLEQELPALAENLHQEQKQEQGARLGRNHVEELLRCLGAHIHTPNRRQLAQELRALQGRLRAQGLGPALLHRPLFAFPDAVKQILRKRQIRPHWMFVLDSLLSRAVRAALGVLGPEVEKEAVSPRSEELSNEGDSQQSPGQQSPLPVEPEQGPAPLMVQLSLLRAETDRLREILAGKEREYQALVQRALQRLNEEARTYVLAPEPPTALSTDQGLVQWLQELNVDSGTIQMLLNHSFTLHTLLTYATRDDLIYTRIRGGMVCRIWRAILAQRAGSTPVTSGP

T2 sequence (P42684 whole entry): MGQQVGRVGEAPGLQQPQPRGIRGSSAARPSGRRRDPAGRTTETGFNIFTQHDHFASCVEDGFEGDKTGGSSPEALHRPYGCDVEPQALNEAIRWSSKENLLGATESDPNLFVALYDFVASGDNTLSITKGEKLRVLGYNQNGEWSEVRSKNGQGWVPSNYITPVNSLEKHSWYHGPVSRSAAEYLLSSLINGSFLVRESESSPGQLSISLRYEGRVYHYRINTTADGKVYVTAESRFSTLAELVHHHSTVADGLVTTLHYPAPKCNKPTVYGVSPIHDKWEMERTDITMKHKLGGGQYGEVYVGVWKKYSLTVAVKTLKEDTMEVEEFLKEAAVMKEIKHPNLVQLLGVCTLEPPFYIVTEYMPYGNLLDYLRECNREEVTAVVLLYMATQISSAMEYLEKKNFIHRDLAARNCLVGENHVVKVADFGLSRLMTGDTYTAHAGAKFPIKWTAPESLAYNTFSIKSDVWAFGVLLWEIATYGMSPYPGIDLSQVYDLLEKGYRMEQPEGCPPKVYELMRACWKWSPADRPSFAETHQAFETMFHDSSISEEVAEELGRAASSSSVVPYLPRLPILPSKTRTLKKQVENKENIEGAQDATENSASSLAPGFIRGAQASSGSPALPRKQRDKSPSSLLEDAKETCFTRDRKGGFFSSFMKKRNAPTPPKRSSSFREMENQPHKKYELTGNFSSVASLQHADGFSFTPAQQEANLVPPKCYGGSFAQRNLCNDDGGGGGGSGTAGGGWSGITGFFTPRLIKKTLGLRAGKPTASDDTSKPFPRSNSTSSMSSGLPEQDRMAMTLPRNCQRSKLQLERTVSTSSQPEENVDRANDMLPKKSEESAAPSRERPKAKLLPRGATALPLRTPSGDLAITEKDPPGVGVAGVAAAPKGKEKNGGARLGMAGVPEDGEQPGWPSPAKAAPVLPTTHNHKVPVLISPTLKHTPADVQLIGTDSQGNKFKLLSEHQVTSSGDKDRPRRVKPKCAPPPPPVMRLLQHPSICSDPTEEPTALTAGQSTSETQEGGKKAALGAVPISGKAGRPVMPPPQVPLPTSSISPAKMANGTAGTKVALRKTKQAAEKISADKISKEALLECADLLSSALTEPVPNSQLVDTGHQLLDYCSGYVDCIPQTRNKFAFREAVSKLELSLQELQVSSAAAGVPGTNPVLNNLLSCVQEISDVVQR

Row | SMILES | CATDS (ACAD11) | CATDS (ABL2) | potency estimated from few doses (MAP3K6; Kinobeads two-dose, Drugmatrix - all 2, read-out: apparent Kd MAP3K6) | CATDS (MAP3K6)
1 | CC(C)N1CC(=O)N(C)c2cnc(Nc3cccc(S(=O)(=O)CCN4CCOCC4)c3)nc21 [BI00009348] | 0 | 0 | 698 nM | –
2 | Nc1ncnc2[nH]c(-c3ccccc3)nc12 [AH5015_KCGS] | 0 | 0 | – | 0
3 | CCc1cc2c(cc1N1CCC(N3CCOCC3)CC1)C(C)(C)c1[nH]c3cc(C#N)ccc3c1C2=O [Alectinib] | 0 | 0 | – | 0
4 | CCN1CCN(Cc2ccc(Nc3ncc(F)c(-c4cc(F)c5nc(C)n(C(C)C)c5c4)n3)nc2)CC1 [Abemaciclib] | 0 | 0 | – | 0
5 | CN(C)C/C=C/C(=O)Nc1cc2c(Nc3ccc(F)c(Cl)c3)ncnc2cc1O[C@H]1CCOC1 [Afatinib] | 0 | – | – | 0
6 | N#CC1(c2ccc(NC(=O)c3cccnc3NCc3ccncc3)cc2)CCCC1 [Apatinib] | 0 | 0 | – | 0
7 | C#Cc1cccc(Nc2ncnc3cc(OC)c(OC4CCN(C)CC4)cc23)c1 [BI00007366] | 0 | 0 | – | –

— paper PMC11062922 (Nature Chemical Biology, 2023)
